Results reported in ChEMBL document CHEMBL1201862, “PubChem BioAssay data set” (2004).
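Growth conditions: 96-well plates. Treatment: test compound, 48 hours, 5 concentrations. Analysis: linear interpolation between bracketing concentrations; unreached endpoints set to highest concentration. Here, GI50 denotes the concentration required for 50% inhibition of growth.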 Calls of active or inactive are those of the source. Cut-off read from the data, not from the text of the source: active = GI50 up to about 1.1 µM and inactive = higher.

Legend:
Assay in all cases: NCI-60 cell line screen, 48 h
SNB-75 = system: SNB-75
Malme-3M = system: Malme-3M
SK-MEL-28 = system: SK-MEL-28
A549 = system: A549
NCI-H23 = system: NCI-H23
CCRF-CEM = system: CCRF-CEM
RXF 393 = system: RXF 393
UACC-62 = system: UACC-62
Hs-578T = system: Hs-578T
SF-268 = system: SF-268
ACHN = system: ACHN
MDA-N = system: MDA-N
COLO 205 = system: COLO 205
M14 = system: M14
OVCAR-3 = system: OVCAR-3
IGROV-1 = system: IGROV-1
UO-31 = system: UO-31
SR = system: SR
SW-620 = system: SW-620
UACC-257 = system: UACC-257

Row | SMILES | GI50 (SNB-75) | GI50 (Malme-3M) | GI50 (SK-MEL-28) | GI50 (A549) | GI50 (NCI-H23) | GI50 (CCRF-CEM) | GI50 (RXF 393) | GI50 (UACC-62) | GI50 (Hs-578T) | GI50 (SF-268) | GI50 (ACHN) | GI50 (MDA-N) | GI50 (COLO 205) | GI50 (M14) | GI50 (OVCAR-3) | GI50 (IGROV-1) | GI50 (UO-31) | GI50 (SR) | GI50 (SW-620) | GI50 (UACC-257)
1 | OC(COc1ccccc1)CN1CCCCC1 (configuration not stated) | > 100 µM (inactive) | > 100 µM (inactive) | > 100 µM (inactive) | > 100 µM (inactive) | > 100 µM (inactive) | > 100 µM (inactive) | > 100 µM (inactive) | > 100 µM (inactive) | > 100 µM (inactive) | > 100 µM (inactive) | > 100 µM (inactive) | > 100 µM (inactive) | > 100 µM (inactive) | > 100 µM (inactive) | > 100 µM (inactive) | > 100 µM (inactive) | > 100 µM (inactive) | > 100 µM (inactive) | > 100 µM (inactive) | > 100 µM (inactive)
2 | C=C1C(=O)OC2CC(C)C(/C=C/C(C)=O)=CCC12 (configuration not stated) | 2.99 µM (inactive) | 10.7 µM (inactive) | > 100 µM (inactive) | > 100 µM (inactive) | > 100 µM (inactive) | 40 µM (inactive) | > 100 µM (inactive) | > 100 µM (inactive) | > 100 µM (inactive) | > 100 µM (inactive) | > 100 µM (inactive) | > 100 µM (inactive) | 90.6 µM (inactive) | > 100 µM (inactive) | > 100 µM (inactive) | > 100 µM (inactive) |  | 57.9 µM (inactive) | 61.8 µM (inactive) | > 100 µM (inactive)
3 | Cc1ccc2nc(/C=N/c3ccc(Cl)cc3)cc(C)c2c1 | 17 µM (inactive) | 2.44 µM (inactive) | 13.4 µM (inactive) | 1.24 µM (inactive) | 9.91 µM (inactive) | 1.06 µM (active) | 24.7 µM (inactive) | 0.133 µM (active) | 15.8 µM (inactive) | 14.7 µM (inactive) | 0.128 µM (active) | 1.3 µM (inactive) | 1.16 µM (inactive) | 0.212 µM (active) | 9.84 µM (inactive) | 0.989 µM (active) | 0.381 µM (active) | 1.88 µM (inactive) | 2.07 µM (inactive) | 4.38 µM (inactive)
4 | Cc1nc(N)nc(S)c1CCCNc1ccccc1 | > 100 µM (inactive) | 35.6 µM (inactive) | > 100 µM (inactive) | 52.2 µM (inactive) | 88.5 µM (inactive) | 28 µM (inactive) | > 100 µM (inactive) | 78.2 µM (inactive) | > 100 µM (inactive) | 62.5 µM (inactive) | 90.2 µM (inactive) | 52 µM (inactive) | 23.5 µM (inactive) | 52.4 µM (inactive) | > 100 µM (inactive) | > 100 µM (inactive) | 59.3 µM (inactive) | 3.6 µM (inactive) | > 100 µM (inactive) | 26.9 µM (inactive)
5 | COc1cc(CSc2ccc(O)cc2)cc(OC)c1OC | 23.1 µM (inactive) | 27.5 µM (inactive) | 76.7 µM (inactive) | 48.4 µM (inactive) | 28.6 µM (inactive) | > 10 µM (inactive) | > 100 µM (inactive) | 27.4 µM (inactive) | 41.3 µM (inactive) | 53.3 µM (inactive) | 31.3 µM (inactive) | 30.5 µM (inactive) | 67.8 µM (inactive) | 36.4 µM (inactive) | 41.6 µM (inactive) | 48.5 µM (inactive) | 14.5 µM (inactive) | 24.1 µM (inactive) | > 100 µM (inactive) | 39 µM (inactive)
6 | Cn1c(=O)cc(NCCc2ccccc2)[nH]c1=O | 19.9 µM (inactive) | 34.8 µM (inactive) | 67.8 µM (inactive) | 38.8 µM (inactive) | 91.8 µM (inactive) | 31.7 µM (inactive) | 57.8 µM (inactive) | 19.9 µM (inactive) | 14.1 µM (inactive) | > 100 µM (inactive) | 39.3 µM (inactive) | 3.7 µM (inactive) | 31.6 µM (inactive) | 27.8 µM (inactive) | 16.1 µM (inactive) | 38.8 µM (inactive) | 34.1 µM (inactive) | 9.1 µM (inactive) | 27.5 µM (inactive) | 50 µM (inactive)
7 | OC(CCN1CCN(CCOC(c2ccc(F)cc2)c2ccc(F)cc2)CC1)c1ccccc1 (configuration not stated) | 13.5 µM (inactive) | 13.4 µM (inactive) | 17.5 µM (inactive) | 16.4 µM (inactive) | 16.6 µM (inactive) | 19 µM (inactive) | 11.1 µM (inactive) | 14.5 µM (inactive) | 16 µM (inactive) | 16.9 µM (inactive) | 12.9 µM (inactive) | 15.1 µM (inactive) | 4.09 µM (inactive) | 14.7 µM (inactive) | 15.3 µM (inactive) | 13.6 µM (inactive) | 3.37 µM (inactive) | 5.48 µM (inactive) | 22.8 µM (inactive) | 16.2 µM (inactive)
8 | CCOC(=O)/C=C(/C(=O)OCC)n1cc(C)c(=O)[nH]c1=O | 10.3 µM (inactive) | 2.29 µM (inactive) | 4.78 µM (inactive) | 16.4 µM (inactive) | 5.56 µM (inactive) | 1.37 µM (inactive) | 1.95 µM (inactive) | 5.14 µM (inactive) | 17.7 µM (inactive) | 8.65 µM (inactive) | 2.72 µM (inactive) | 5.83 µM (inactive) | 1.81 µM (inactive) | 1.95 µM (inactive) | 2.68 µM (inactive) | 5.36 µM (inactive) | 11.2 µM (inactive) | 1.92 µM (inactive) | 2.01 µM (inactive) | 12.9 µM (inactive)
9 | N#CC(Cl)CS(=O)(=O)c1ccccc1 (configuration not stated) | 15.2 µM (inactive) | 2.07 µM (inactive) | 13.3 µM (inactive) | 20.1 µM (inactive) | 16.3 µM (inactive) | 0.628 µM (active) | 2.35 µM (inactive) | 12.2 µM (inactive) | 11.8 µM (inactive) | 11 µM (inactive) | 4.41 µM (inactive) | 8.09 µM (inactive) | 1.75 µM (inactive) | 4.76 µM (inactive) | 2.71 µM (inactive) | 16.9 µM (inactive) | 19.1 µM (inactive) | 1.8 µM (inactive) | 1.68 µM (inactive) | 7.14 µM (inactive)
10 | COC(=O)c1cc(=O)nc2sc3cccc(C)c3n12 | > 100 µM (inactive) | 23.9 µM (inactive) | 62.8 µM (inactive) | 46.9 µM (inactive) | 55 µM (inactive) | 20.2 µM (inactive) | 56.1 µM (inactive) | 46.2 µM (inactive) | 56.2 µM (inactive) | 61.1 µM (inactive) | 20.9 µM (inactive) | 44 µM (inactive) | 14.3 µM (inactive) | 33.1 µM (inactive) | 23 µM (inactive) | 92 µM (inactive) |  | 24 µM (inactive) | 30.3 µM (inactive) | 65 µM (inactive)
11 | COc1ccc(-c2nnc(-c3ccncc3)o2)cc1 | > 100 µM (inactive) | > 100 µM (inactive) | > 100 µM (inactive) | > 100 µM (inactive) | > 100 µM (inactive) | > 100 µM (inactive) | > 100 µM (inactive) | > 100 µM (inactive) | > 100 µM (inactive) | > 100 µM (inactive) | > 100 µM (inactive) | > 100 µM (inactive) | > 100 µM (inactive) | > 100 µM (inactive) | > 100 µM (inactive) | > 100 µM (inactive) | > 100 µM (inactive) | > 100 µM (inactive) |  | > 100 µM (inactive)
